# Test results as given in patent publication US8173764B2, “Solubilization and targeted delivery of drugs with self-assembling amphiphilic polymers” (AllExcel Inc., priority 2006, dated 2012).
# Read-outs that look alike come from different tables or passages of the source.
# How the values were obtained:
# physchem = test: physchem
# Protocol: (§1) The container bottoms were then attached to the bottom of a small jewelry ultrasonic cleaner bath using a water-resistant double-stick tape. Just enough water was added to the bath to immerse the weigh boats to about ⅓rd height. Sonication was performed for 15 minutes in steps of 5 minutes. The liquids were transferred to centrifuge tubes and centrifuged twice for 30 min. in a bench top centrifuge to pellet out undissolved dye. The supernatants were transferred to clean tubes and centrifuged again, to remove entrained solids. Suspensions of same amounts of dyes in same amount of distilled water as the amount of the polymer solution were treated in the same fashion, as controls. The resulting solutions were spotted (25 ul) on TLC plates to form circles from the drops. The intensities of the spots were compared with spots made from standards of dye solutions made in ethanol or ethanol/water to determine approximate concentrations; the spots are shown in FIG. 1. The solubilities of the dyes in water were determined by dissolving appropriate amount of the dye in […] deionized water (unbuffered) at room temperature, and adding (i.e. titrating with) further water as necessary to obtain saturated solutions.
# [1] = Protocol: as §1
"solubility (physchem; water, thermodynamic from solid) [µg/mL]",concentration of dye in 50 mg/ml polymer ([1]; 15 min),concentration (solubility) of dye in H2O (physchem) [µg/mL],concentration of dye in 50 mg/ml polymer [1],Compound
10,approximately 5 mg/ml,–,–,"O=C1OC2(c3cc(Cl)c(O)cc3Oc3cc(O)c(Cl)cc32)c2ccccc21 [Dichlorofluorescein, dichlorofluorescein]"
–,–,0,approximately 0.2 mg/ml,Cc1ccccc1/N=N/c1ccc(/N=N/c2c(O)ccc3ccccc23)c(C)c1 [Sudan IV]
